# In the kinase profiling compilation of Christmann-Franck et al. (2016):
# What was measured:
# Experiment in all cases: KINOMEscan competition binding
# Conditions in all cases: compound 0.1 µM
# [1] = test system: ABL1 (human), P00519 [M351T]
# [2] = target: AKT3 (human) (UniProt Q9Y243)
# [3] = target: AURKA (human) (UniProt O14965)
# [4] = target: CAMK2G (human) (UniProt Q13555)
# [5] = target: CDK13 (human) (UniProt Q14004)
# [6] = target: CDK4 CCND3 (human) (UniProt P11802+P30281)
# [7] = target: CLK4 (human) (UniProt Q9HAZ1)
# [8] = target: CSNK1A1L (human) (UniProt Q8N752)
# [9] = target: DMPK (human) (UniProt Q09013)
# [10] = target: DYRK1A (human) (UniProt Q13627)
# [11] = target: DYRK1B (human) (UniProt Q9Y463)
# [12] = target: EGFR (human) (UniProt P00533)
# [13] = target: EPHA3 (human) (UniProt P29320)
# [14] = target: ERBB2 (human) (UniProt P04626)
# [15] = target: ERBB3 (human) (UniProt P21860)
# [16] = test system: FLT3 (human), P36888 [K663Q]
# [17] = target: HIPK4 (human) (UniProt Q8NE63)
# [18] = target: JAK1 JH2 pseudokinase (human) (UniProt P23458)
# [19] = target: LATS1 (human) (UniProt O95835)
# [20] = target: MAP2K2 (human) (UniProt P36507)
# [21] = target: MAP3K2 (human) (UniProt Q9Y2U5)
# [22] = target: MAP3K4 (human) (UniProt Q9Y6R4)
# [23] = target: MAP3K7 (human) (UniProt O43318)
# [24] = target: MAP4K5 (human) (UniProt Q9Y4K4)
# [25] = target: MAPK14 (human) (UniProt Q16539)
# [26] = target: MAPK7 (human) (UniProt Q13164)
# [27] = target: NEK1 (human) (UniProt Q96PY6)
# [28] = target: NEK6 (human) (UniProt Q9HC98)
# [29] = target: NEK9 (human) (UniProt Q8TD19)
# [30] = target: NLK (human) (UniProt Q9UBE8)
# [31] = target: OXSR1 (human) (UniProt O95747)
# [32] = target: PAK4 (human) (UniProt O96013)
# [33] = target: PIK3C2G (human) (UniProt O75747)
# [34] = target: PIK3CG (human) (UniProt P48736)
# [35] = target: PIM2 (human) (UniProt Q9P1W9)
# [36] = target: PKN3 (M.tuberculosis) (UniProt Q6P5Z2)
# [37] = target: RET (human) (UniProt P07949)
# [38] = target: RPS6KA6 KD2 (human) (UniProt Q9UK32)
# [39] = target: SYK (human) (UniProt P43405)
# [40] = target: TBK1 (human) (UniProt Q9UHD2)
# Chain of MAP3K4 (human) (Q9Y6R4 whole entry, looked up): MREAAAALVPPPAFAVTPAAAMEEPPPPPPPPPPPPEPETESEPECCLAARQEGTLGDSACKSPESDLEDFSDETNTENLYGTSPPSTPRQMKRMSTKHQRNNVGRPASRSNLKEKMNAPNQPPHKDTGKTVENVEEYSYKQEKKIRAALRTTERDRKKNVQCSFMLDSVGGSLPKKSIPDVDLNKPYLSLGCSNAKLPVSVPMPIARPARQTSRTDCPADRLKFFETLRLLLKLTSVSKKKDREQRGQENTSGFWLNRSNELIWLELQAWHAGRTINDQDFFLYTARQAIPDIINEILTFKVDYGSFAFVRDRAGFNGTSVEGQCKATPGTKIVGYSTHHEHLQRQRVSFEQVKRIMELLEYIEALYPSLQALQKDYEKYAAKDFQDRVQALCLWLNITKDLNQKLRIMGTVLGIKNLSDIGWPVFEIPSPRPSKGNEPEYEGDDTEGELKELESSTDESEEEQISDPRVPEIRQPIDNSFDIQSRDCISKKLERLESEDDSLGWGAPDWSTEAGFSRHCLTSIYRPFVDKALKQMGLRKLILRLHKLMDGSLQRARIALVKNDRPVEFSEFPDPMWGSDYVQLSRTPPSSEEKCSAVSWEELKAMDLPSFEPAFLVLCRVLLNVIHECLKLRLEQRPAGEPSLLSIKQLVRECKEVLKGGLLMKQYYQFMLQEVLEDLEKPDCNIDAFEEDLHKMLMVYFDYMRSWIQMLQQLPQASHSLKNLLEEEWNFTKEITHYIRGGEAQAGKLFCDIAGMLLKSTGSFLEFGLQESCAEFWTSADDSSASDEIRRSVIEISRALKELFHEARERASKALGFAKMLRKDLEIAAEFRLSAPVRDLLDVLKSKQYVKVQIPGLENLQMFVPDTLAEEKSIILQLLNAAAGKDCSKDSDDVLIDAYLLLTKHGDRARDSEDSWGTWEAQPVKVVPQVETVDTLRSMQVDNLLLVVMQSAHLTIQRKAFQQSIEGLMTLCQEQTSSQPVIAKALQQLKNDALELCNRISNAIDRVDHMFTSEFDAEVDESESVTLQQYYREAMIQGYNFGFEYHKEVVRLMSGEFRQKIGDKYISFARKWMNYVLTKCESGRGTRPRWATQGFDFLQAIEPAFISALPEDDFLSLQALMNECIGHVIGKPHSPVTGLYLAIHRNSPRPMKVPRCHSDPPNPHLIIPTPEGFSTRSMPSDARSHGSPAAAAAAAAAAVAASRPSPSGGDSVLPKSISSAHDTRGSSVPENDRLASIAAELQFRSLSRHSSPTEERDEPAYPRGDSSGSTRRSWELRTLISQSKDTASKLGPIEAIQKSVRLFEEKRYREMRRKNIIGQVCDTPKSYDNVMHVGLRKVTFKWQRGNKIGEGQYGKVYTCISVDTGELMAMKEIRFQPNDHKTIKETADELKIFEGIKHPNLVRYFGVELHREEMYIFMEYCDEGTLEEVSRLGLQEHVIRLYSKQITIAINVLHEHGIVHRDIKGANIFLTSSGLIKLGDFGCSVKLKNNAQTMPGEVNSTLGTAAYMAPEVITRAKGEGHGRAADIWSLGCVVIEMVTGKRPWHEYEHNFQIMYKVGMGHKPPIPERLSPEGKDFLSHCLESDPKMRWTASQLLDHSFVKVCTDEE
# Chain of PIK3C2G (human) (O75747 whole entry, looked up): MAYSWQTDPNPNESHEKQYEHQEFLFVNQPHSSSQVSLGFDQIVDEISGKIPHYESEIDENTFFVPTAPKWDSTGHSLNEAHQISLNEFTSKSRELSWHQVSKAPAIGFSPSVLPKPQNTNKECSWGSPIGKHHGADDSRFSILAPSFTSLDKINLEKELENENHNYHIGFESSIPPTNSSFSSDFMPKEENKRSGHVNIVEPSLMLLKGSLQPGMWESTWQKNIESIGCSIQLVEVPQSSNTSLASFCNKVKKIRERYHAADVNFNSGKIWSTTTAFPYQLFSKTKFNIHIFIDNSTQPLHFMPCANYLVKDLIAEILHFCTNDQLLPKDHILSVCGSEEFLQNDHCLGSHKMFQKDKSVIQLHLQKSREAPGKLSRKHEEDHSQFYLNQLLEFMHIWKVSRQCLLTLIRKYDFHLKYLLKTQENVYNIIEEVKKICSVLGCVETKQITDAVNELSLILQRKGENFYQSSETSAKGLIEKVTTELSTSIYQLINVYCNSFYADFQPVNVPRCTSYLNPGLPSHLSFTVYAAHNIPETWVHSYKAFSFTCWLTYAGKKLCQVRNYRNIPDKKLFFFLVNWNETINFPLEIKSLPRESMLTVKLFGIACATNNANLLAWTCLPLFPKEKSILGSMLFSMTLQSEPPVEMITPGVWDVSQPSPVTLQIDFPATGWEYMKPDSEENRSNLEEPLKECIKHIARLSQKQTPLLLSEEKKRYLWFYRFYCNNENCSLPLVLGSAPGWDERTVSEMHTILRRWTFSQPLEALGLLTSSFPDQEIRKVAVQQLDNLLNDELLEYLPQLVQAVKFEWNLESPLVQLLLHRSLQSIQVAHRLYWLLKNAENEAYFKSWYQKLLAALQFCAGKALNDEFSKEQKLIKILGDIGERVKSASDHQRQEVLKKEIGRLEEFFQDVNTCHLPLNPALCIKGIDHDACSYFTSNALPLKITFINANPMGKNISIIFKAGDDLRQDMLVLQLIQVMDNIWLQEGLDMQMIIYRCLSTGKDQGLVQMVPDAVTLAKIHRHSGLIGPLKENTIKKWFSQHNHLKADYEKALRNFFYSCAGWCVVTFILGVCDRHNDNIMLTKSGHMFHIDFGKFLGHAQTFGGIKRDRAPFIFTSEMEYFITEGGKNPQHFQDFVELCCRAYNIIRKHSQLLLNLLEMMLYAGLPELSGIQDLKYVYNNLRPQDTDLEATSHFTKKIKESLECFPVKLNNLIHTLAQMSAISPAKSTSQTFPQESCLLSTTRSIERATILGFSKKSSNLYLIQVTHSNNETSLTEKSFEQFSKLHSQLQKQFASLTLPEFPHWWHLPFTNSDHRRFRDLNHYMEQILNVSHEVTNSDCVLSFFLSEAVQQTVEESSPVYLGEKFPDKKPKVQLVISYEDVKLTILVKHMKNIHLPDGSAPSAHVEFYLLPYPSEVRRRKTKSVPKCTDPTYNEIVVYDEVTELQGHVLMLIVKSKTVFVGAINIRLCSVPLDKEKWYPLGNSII
# Chain of DYRK1B (human) (Q9Y463 whole entry, looked up): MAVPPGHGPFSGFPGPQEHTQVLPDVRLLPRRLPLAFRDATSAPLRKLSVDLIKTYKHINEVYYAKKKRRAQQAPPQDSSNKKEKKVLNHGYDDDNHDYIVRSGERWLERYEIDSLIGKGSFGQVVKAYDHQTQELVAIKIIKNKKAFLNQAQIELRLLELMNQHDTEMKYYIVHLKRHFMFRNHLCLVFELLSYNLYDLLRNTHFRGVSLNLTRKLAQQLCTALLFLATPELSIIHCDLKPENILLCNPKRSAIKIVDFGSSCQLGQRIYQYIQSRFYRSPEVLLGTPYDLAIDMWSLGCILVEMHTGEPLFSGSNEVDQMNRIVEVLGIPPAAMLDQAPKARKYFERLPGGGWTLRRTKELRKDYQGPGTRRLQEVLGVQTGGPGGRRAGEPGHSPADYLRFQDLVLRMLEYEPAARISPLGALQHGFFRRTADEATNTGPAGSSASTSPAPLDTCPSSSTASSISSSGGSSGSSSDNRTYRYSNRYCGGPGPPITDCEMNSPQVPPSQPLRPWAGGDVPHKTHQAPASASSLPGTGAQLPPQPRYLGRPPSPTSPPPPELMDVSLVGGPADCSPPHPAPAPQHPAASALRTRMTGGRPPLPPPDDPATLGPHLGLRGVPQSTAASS
# Chain of JAK1 JH2 pseudokinase (human) (P23458 whole entry, looked up): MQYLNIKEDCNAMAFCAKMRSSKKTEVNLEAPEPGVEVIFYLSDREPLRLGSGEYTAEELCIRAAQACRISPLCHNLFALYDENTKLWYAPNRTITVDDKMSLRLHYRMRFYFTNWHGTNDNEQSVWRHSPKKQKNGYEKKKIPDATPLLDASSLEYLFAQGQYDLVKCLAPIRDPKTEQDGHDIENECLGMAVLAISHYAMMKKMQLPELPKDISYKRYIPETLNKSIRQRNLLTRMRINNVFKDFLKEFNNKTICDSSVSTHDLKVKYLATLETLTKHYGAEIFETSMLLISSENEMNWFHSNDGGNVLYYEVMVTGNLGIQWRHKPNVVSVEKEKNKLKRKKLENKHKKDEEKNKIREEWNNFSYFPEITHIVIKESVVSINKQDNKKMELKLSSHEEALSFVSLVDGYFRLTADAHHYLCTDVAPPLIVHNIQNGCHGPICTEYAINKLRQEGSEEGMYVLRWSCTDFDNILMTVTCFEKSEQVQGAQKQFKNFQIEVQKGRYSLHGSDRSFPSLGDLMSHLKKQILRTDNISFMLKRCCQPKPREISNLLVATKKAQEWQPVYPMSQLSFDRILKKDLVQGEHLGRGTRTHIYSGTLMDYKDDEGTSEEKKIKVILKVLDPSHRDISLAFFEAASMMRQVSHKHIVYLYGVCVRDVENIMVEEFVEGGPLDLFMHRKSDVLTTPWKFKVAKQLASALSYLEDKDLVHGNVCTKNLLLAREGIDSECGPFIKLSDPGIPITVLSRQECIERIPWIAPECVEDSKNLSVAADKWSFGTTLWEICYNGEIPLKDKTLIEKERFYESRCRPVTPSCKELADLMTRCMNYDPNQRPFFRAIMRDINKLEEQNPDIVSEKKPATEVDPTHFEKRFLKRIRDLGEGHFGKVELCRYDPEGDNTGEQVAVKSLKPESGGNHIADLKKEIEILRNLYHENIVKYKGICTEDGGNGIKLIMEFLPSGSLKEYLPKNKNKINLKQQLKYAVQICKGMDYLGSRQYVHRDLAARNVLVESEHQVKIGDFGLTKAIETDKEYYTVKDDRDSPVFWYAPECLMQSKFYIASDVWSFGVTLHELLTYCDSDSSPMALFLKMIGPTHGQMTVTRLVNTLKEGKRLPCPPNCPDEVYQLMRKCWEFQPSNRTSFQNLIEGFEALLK
structure (smiles),measurement,setting,value
CCc1ccc(C(=O)Nc2cc(CN3CCN(C)CC3)cc(C(F)(F)F)c2)cc1C#Cc1cnc2ccnn2c1,"kinase still bound, per cent of control",[1],100%
same,"kinase still bound, per cent of control",[2],100%
same,"kinase still bound, per cent of control",[3],100%
same,"kinase still bound, per cent of control",[4],79%
same,"kinase still bound, per cent of control",[5],71%
same,"kinase still bound, per cent of control",[6],100%
same,"kinase still bound, per cent of control",[7],100%
same,"kinase still bound, per cent of control",[8],83%
same,"kinase still bound, per cent of control",[9],100%
same,"kinase still bound, per cent of control",[10],100%
same,"kinase still bound, per cent of control",[11],53%
same,"kinase still bound, per cent of control",[12],100%
same,"kinase still bound, per cent of control",[13],47%
same,"kinase still bound, per cent of control",[14],61%
same,"kinase still bound, per cent of control",[15],86%
same,"kinase still bound, per cent of control",[16],70%
same,"kinase still bound, per cent of control",[17],78%
same,"kinase still bound, per cent of control",[18],100%
same,"kinase still bound, per cent of control",[19],100%
same,"kinase still bound, per cent of control",[20],100%
same,"kinase still bound, per cent of control",[21],100%
same,"kinase still bound, per cent of control",[22],100%
same,"kinase still bound, per cent of control",[23],100%
same,"kinase still bound, per cent of control",[24],100%
same,"kinase still bound, per cent of control",[25],85%
same,"kinase still bound, per cent of control",[26],100%
same,"kinase still bound, per cent of control",[27],93%
same,"kinase still bound, per cent of control",[28],100%
same,"kinase still bound, per cent of control",[29],100%
same,"kinase still bound, per cent of control",[30],45%
same,"kinase still bound, per cent of control",[31],100%
same,"kinase still bound, per cent of control",[32],80%
same,"kinase still bound, per cent of control",[33],100%
same,"kinase still bound, per cent of control",[34],100%
same,"kinase still bound, per cent of control",[35],96%
same,"kinase still bound, per cent of control",[36],78%
same,"kinase still bound, per cent of control",[37],52%
same,"kinase still bound, per cent of control",[38],100%
same,"kinase still bound, per cent of control",[39],83%
same,"kinase still bound, per cent of control",[40],100%
